# Measurements: paper PMC8147656 (Journal of Personalized Medicine, 2021)
# Where two headings read alike, the source gives them in different places.
# How the values were obtained:
# CYP2C9 [1] = assay: CYP2C9-mediated metabolism (fm, intrinsic clearance); assay type: in vitro ADME, human; conditions: gliclazide; calculated from microsomal total intrinsic clearance [10], CYP abundances and fm [36]
# Protocol: (§1) The full PBPK model was developed for gliclazide using a middle-out approach. The Vss was predicted by Simcyp Rodgers et al. + ion membrane permeability model. […] The intrinsic clearances per pmol of CYP enzymes were calculated using total intrinsic clearance measured in vitro in human liver microsomes, and fm values obtained from in vivo data. […] Considering the difference in abundance and activity of the transporter between liver and the transfected cell line, a relative activity factor (RAF) was optimized to fit the observed clinical data. Liver passive diffusion clearance (ClPD) of gliclazide was estimated based on experimental logD7.4 value.
# [2] = gliclazide; ref Proks et al., 2018 [46]; cited from earlier work
# CYP2C19 [3] = assay: CYP2C19-mediated metabolism (fm, intrinsic clearance); assay type: in vitro ADME, human
# Protocol: (§2) Absorption was described by a first-order absorption model in line with previous studies. The steady-state volume of distribution (Vss) value was based on previous models.
# as §1
# [4] = single oral gliclazide, healthy Chinese volunteers, cited from earlier work
# OATP1B1 = conditions: cited from earlier work
# CYP2C9 [5] = conditions: human liver microsomes, CYP selective inhibitors; cited from earlier work
# [6] = Population observational study of patients with T2D (GoDARTS): severe gliclazide-induced hypoglycemia; assay type: in vivo, human; conditions: gliclazide-treated cohort with genetic data (48 cases and 288 controls); OR (95% CI), p = 0.187
# Text: We used the Scottish Ambulance Service data and the Accident and Emergency diagnosis records to identify severe cases of hypoglycemia in Tayside and Fife, Scotland. […] Logistic regression was used to analyze the effect of the CYP2C19 variants and co-treatment with PPIs on gliclazide-induced hypoglycemia. All analyses were adjusted for known clinical predictors of hypoglycemia, including age, sex, age of T2D diagnosis, body mass index, creatinine and HbA1c [53], as well as the overall number of medications used as a proxy for comorbidities [54]. The CYP2C19 phenotypes were assigned based on diplotypes in the same manner as in healthy volunteers. The analyses were performed using SAS 9.3 (SAS Institute Inc., Cary, NC, USA). Statistical significance was set at p < 0.05.
# [7] = cited from earlier work
# [8] = cited from earlier work; remark: listed apart in the source
# Mrp2 = system: Mrp2; design: method as in PMID 18799822; conditions: cited from earlier work
# [9] = Clinical trial on omeprazole-gliclazide interaction in healthy volunteers, CYP2C19 NM/RM/UM; assay type: in vivo, human; conditions: for AUC(0-t): male, human, serum, oral, 40 mg, gliclazide 40 mg tablet, current trial, geometric mean (95% CI), read-out: AUC0–24, observed
# Text: Fifteen healthy volunteers (men, age 18–30 years, non-smokers) with CYP2C19 NM/RM/UM status were recruited. The exclusion criteria included: a medical history of hepatic, renal, gastrointestinal or hematologic disease or any acute or chronic disease; drug allergy to sulfonylureas or PPIs; history of drug abuse; abnormalities in physical examination, ECG or routine clinical laboratory tests (including fasting blood glucose concentration); medication use during the 14 days prior to and during the study period; grapefruit, grapefruit juice, alcohol, beverages or food containing methylxanthines use during the 72 h prior to and during the study period.
# On day 5 of each admission period, after an overnight fast, the volunteers were admitted to the hospital. […] Drugs were given in a sitting position, at 8 AM. Volunteers were not permitted to lie down or sleep for the next 4 h after taking drugs, as well as to perform any strenuous activities for the next 24 h. In order to counteract the blood glucose-lowering action of gliclazide, volunteers received standardized meals: breakfast at 30 min after gliclazide intake, snacks after 2 and 3 h, a lunch (warm meal) after 4 h, a snack after 6 h, dinner after 8 h, and additional snacks at 10 h and 12 h after drugs administration. No other food and drink (with the exception of water) were allowed. For safety reasons, the volunteers were under direct medical supervision throughout the 24 h following drugs administration. Fast-acting carbohydrates, glucose solution for i.v. use and glucagon for intramuscular use were available in case of hypoglycemia.
# Venous blood samples were collected on day 5 of each admission period before dosing (0 h) and 0.5, 1, 1.5, 2, 2.5, 3, 3.5, 4, 4.5, 5, 6, 8, 10, 12, 15 and 24 h after gliclazide administration. Serum samples for gliclazide quantification were separated within 30 min following each blood sample collection and stored at −80 °C until the analysis.
# Serum gliclazide concentrations were quantified using a validated stable isotope dilution liquid chromatography-tandem mass spectrometry (LC-MS/MS) method. In brief, a total of 10 µL serum was added to 90 µL acetonitrile containing 100 ng/mL of d4-gliclazide and 0.1% formic acid. […] Gliclazide was quantitated by the triple quadrupole mass spectrometer in ESI positive ion mode. […] The limit of quantification was 3.1 ng/mL.
# PK parameters were calculated in a noncompartmental analysis using PKSolver, a program for PK data analysis in Microsoft Excel. The area under the plasma gliclazide concentration-time curve (AUC) up to the last concentration measured (AUC0–t) was determined using the linear trapezoidal rule.
# The main evaluated outcome was systemic exposure to gliclazide, expressed as AUC0–t. The geometric mean was calculated for AUC0–24. […]
# [10] = In vitro dissolution testing under biorelevant media-change conditions; assay type: physicochemical; conditions: conditions without vs with omeprazole (gastric pH)
# Protocol: In order to estimate the drug release rate in vivo and concomitant absorption profile, dissolution tests were performed under biorelevant media-change conditions (Table 3), using USP apparatus 2 (Erweka DT 800, Heusenstamm, Germany) at 37 ± 0.5 °C and rotational speed of 100 rpm. Withdrawn aliquots were filtered, diluted and analysed for gliclazide by UV spectrophotometry (UV-1700 spectrophotometer, Shimadzu, Japan). The absorbance obtained at 226 nm was corrected by subtracting the absorbance obtained at 290 nm, according to British Pharmacopeia. All measurements were performed in triplicate. The pH values and tablet residence time in each medium were selected based on the proposed biorelevant dissolution test conditions. […] Medium pH 6.0 was used to simulate the fed state luminal conditions in the ascending colon.
# CYP2C19 [11] = conditions: cited from earlier work
# [12] = design: method as in Hassan-Alin et al., 2005 [30]; conditions: geometric mean (95% CI), ref Hassan-Alin et al., 2005 [30], cited from earlier work; for Cmax: read-out: Cmax, observed
# CYP3A4 [13] = assay: CYP3A4-mediated metabolism (fm, intrinsic clearance); assay type: in vitro ADME, human; conditions: omeprazole; retrograde calculated from observed Clpo after 20 mg single dose, fa*fg = 1
# Text: as §2
# CYP3A4 [14] = system: CYP3A4; design: method as in PMID 24739523; conditions: omeprazole; average value for CYP2C19 EM/RM/UM phenotypes; cited from earlier work
# [15] = omeprazole, cited from earlier work
# CYP2C19 [16] = conditions: previous study based on omeprazole enantiomers; cited from earlier work
# CYP2C19 [17] = system: CYP2C19; design: method as in Ogilvie et al., 2011 [27]; conditions: omeprazole; ref Ogilvie et al., 2011 [27]; cited from earlier work
# [18] = design: method as in PMID 11117653; conditions: healthy volunteers; cited from earlier work
# [19] = gliclazide, ref Chen et al., 2018 [37]
# [20] = gliclazide model input, ref Grbic et al., 2011 [40]
# [21] = gliclazide 30 mg MR tablet, single oral, geometric mean (95% CI)
# [22] = gliclazide 80 mg IR tablet, single oral, geometric mean (95% CI)
# [23] = gliclazide i.v. infusion 30 mg, geometric mean (95% CI)
# [24] = omeprazole model input, ref Ogilvie et al., 2011 [27]
# [25] = first-order absorption model, ref Ogilvie et al., 2011 [27]
structure (smiles),measurement,setting,value
Cc1ccc(S(=O)(=O)NC(=O)NN2CC3CCCC3C2)cc1 (stereo not drawn) [gliclazide],Clint CYP2C9,CYP2C9 [1],0.004 µL/min/pmol
same,fu (fraction unbound),[2],0.15
same,Clint CYP2C19,"CYP2C19 [3]; gliclazide, calculated from microsomal total intrinsic clearance [10], CYP abundances and fm [36]",0.273 µL/min/pmol
same,"Observed gliclazide AUC, fold higher in CYP2C19 PM compared to NM",[4]; ref 11,3.4 fold
same,"Observed gliclazide AUC, fold higher in CYP2C19 PM compared to NM",[4]; ref 12,5.1 fold
same,Substrate of hepatic OATP1B1 transporter,OATP1B1,substrate
same,Km,OATP1B1; [19],30.2 µM
same,OATP1B1 Jmax,OATP1B1; [19],12.9 pmol/min/10^6 cells
same,Contribution of CYP2C9 to gliclazide metabolism,CYP2C9 [5],at least 65%
same,Odds ratio of hypoglycemia for the loss-of-function CYP2C19*2 allele,[6],0.50 (0.18–1.40)
same,Log P,"[7]; gliclazide model input, ref El-Sabawi, et al., 2014 [45]",2.04
same,Compound type,[7]; [20],Ampholyte
same,pKa (first value),[7]; [20],2.9
same,pKa (second value),[7]; [20],5.8
same,"AUC0–72, observed",[8]; [21],14.4 (12.4–16.8) µgh/mL
same,"AUC0–∞, observed",[8]; [21],15.6 (13.5–18.1) µgh/mL
same,"Cmax, observed",[8]; [21],0.71 (0.62–0.82) µg/mL
same,"tmax, observed","[8]; gliclazide 30 mg MR tablet, single oral, median (minimum–maximum)",7 (4–10) h
same,"AUC0–48, observed",[8]; [22],45.5 (38.9–53.3) µgh/mL
same,"AUC0–∞, observed",[8]; [22],50.9 (42.8–60.5) µgh/mL
same,"Cmax, observed",[8]; [22],3.51 (3.24–3.80) µg/mL
same,"tmax, observed",[8]; [22],3.66 (3.10–4.33) h
same,"AUC0–72, observed",[8]; [23],15.5 (13.0–18.5) µgh/mL
same,"AUC0–∞, observed",[8]; [23],17.2 (14.5–20.3) µgh/mL
same,"Cmax, observed",[8]; [23],1.39 (1.16–1.67) µg/mL
same,Vss observed in humans in vivo,[8]; gliclazide,0.19 to 0.46 L/kg
same,Substrate for the efflux Mrp2 transporter in rats,Mrp2,substrate
same,Hypoglycemia or other adverse effects in the trial,"[9]; 40 mg gliclazide with placebo or 20 mg omeprazole, healthy volunteers",no cases of hypoglycemia or any other adverse effect
same,"Geometric mean ratio of gliclazide AUC0–24, omeprazole phase/placebo phase","[9]; 40 mg gliclazide, 20 mg omeprazole 5 days, 14 healthy volunteers NM/RM/UM, ratio (90% CI)",1.13 (0.86–1.48)
same,AUC(0-t),[9]; omeprazole phase,3730 ng·h/mL
same,AUC(0-t),[9]; placebo phase,3290 ng·h/mL
same,Initial gliclazide release rate between media pH 1.6 and pH 3.0,[10],no difference
same,Contribution of CYP2C19 to gliclazide metabolism,"CYP2C19 [11]; human liver microsomes, CYP selective inhibitors",≤ 35%
COc1ccc2[nH]c([S+]([O-])Cc3ncc(C)c(OC)c3C)nc2c1 (stereo not drawn) [omeprazole],"AUC0–∞, observed",[12]; omeprazole 20 mg day 1,1.04 (0.64–1.72) µM × h
same,Cmax,[12]; omeprazole 20 mg day 1,1040 nM
same,"AUC0–∞, observed",[12]; omeprazole 20 mg day 5,1.63 (0.96–2.78) µM × h
same,Cmax,[12]; omeprazole 20 mg day 5,1430 nM
same,"AUC0–∞, observed",[12]; omeprazole 40 mg day 1,2.44 (1.53–3.91) µM × h
same,Cmax,[12]; omeprazole 40 mg day 1,2320 nM
same,"AUC0–∞, observed",[12]; omeprazole 40 mg day 5,5.79 (3.60–9.33) µM × h
same,Cmax,[12]; omeprazole 40 mg day 5,3870 nM
same,Clint CYP2C19,"CYP2C19 [3]; omeprazole, retrograde calculated from observed Clpo after 20 mg single dose, fa*fg = 1",75.1 µL/min/pmol
same,Clint CYP3A4,CYP3A4 [13],0.39 µL/min/pmol
same,fm CYP3A4,CYP3A4 [14],14%
same,Compound type,[7]; [24],Ampholyte
same,pKa (first value),[7]; [24],4.4
same,fa (fraction absorbed),[15]; [25],1
same,ka (absorption rate constant),[15]; [25],6 h⁻¹
same,Vss,"[15]; minimal PBPK model, ref Deng 2016 [29], Wu et al., 2014 [28]",0.15 L/kg
same,ClR (renal clearance),"[15]; ref Wu et al., 2014 [28], Feng et al., 2015 [42]",0.037 L/h
same,"Predicted lowest level of active CYP2C19, previous study",CYP2C19 [16],14%
same,Ki,CYP2C19 [17],5 µM
same,fm CYP2C19,"CYP2C19 [11]; omeprazole, average value for CYP2C19 EM/RM/UM phenotypes",86%
COc1ccnc(C[S+]([O-])c2nc3ccc(OC(F)F)cc3[nH]2)c1OC (stereo not drawn) [pantoprazole],Effect of pantoprazole on glibenclamide PK,[18],no effect
